Experimental data: ChEMBL document CHEMBL3797052 (Eur J Med Chem, 2016)

How the values were obtained:
Format in all cases: functional
SR = test: Antiproliferative activity against human SR cells assessed as cell growth at 10^-5 M after 48 hrs by sulforhodamine B assay; details: read-out: Activity
SK-MEL-5 = test: Antiproliferative activity against human SK-MEL-5 cells assessed as cell growth at 10^-5 M after 48 hrs by sulforhodamine B assay; details: SK-MEL-5, 48 h, read-out: Activity
[1] = Antiproliferative activity against human SF539 cells assessed as cell growth at 10^-5 M after 48 hrs by sulforhodamine B assay; details: SF-539, 48 h, read-out: Activity
[2] = Antiproliferative activity against human NCI-ADR-RES cells assessed as cell growth at 10^-5 M after 48 hrs by sulforhodamine B assay; details: read-out: Activity
[3] = Antiproliferative activity against human SNB75 cells assessed as cell growth at 10^-5 M after 48 hrs by sulforhodamine B assay; details: SNB-75, 48 h, read-out: Activity
M14 = test: Antiproliferative activity against human M14 cells assessed as cell growth at 10^-5 M after 48 hrs by sulforhodamine B assay; details: M14, 48 h, read-out: Activity
[4] = Antiproliferative activity against human RXF393 cells assessed as cell growth at 10^-5 M after 48 hrs by sulforhodamine B assay; details: RXF 393, 48 h, read-out: Activity
[5] = Antiproliferative activity against human HOP62 cells assessed as cell growth at 10^-5 M after 48 hrs by sulforhodamine B assay; details: HOP-62, 48 h, read-out: Activity
Malme-3M = test: Antiproliferative activity against human MALME-3M cells assessed as cell growth at 10^-5 M after 48 hrs by sulforhodamine B assay; details: read-out: Activity
NCI-H522 = test: Antiproliferative activity against human NCI-H522 cells assessed as cell growth at 10^-5 M after 48 hrs by sulforhodamine B assay; details: NCI-H522, 48 h, read-out: Activity
[6] = Antiproliferative activity against human UO31 cells assessed as cell growth at 10^-5 M after 48 hrs by sulforhodamine B assay; details: UO-31, 48 h, read-out: Activity
T47D = test: Antiproliferative activity against human T47D cells assessed as cell growth at 10^-5 M after 48 hrs by sulforhodamine B assay; details: read-out: Activity
NCI-H460 = test: Antiproliferative activity against human NCI-H460 cells assessed as cell growth at 10^-5 M after 48 hrs by sulforhodamine B assay; details: NCI-H460, 48 h, read-out: Activity
ACHN = test: Antiproliferative activity against human ACHN cells assessed as cell growth at 10^-5 M after 48 hrs by sulforhodamine B assay; details: read-out: Activity
[7] = Antiproliferative activity against human SF295 cells assessed as cell growth at 10^-5 M after 48 hrs by sulforhodamine B assay; details: SF-295, 48 h, read-out: Activity
[8] = Antiproliferative activity against human MOLT4 cells assessed as cell growth at 10^-5 M after 48 hrs by sulforhodamine B assay; details: MOLT-4, 48 h, read-out: Activity
MCF7 = test: Antiproliferative activity against human MCF7 cells assessed as cell growth at 10^-5 M after 48 hrs by sulforhodamine B assay; details: MCF7, 48 h, read-out: Activity
[9] = Antiproliferative activity against human HCT116 cells assessed as cell growth at 10^-5 M after 48 hrs by sulforhodamine B assay; details: HCT-116, 48 h, read-out: Activity
EKVX = test: Antiproliferative activity against human EKVX cells assessed as cell growth at 10^-5 M after 48 hrs by sulforhodamine B assay; details: read-out: Activity
U-251 = test: Antiproliferative activity against human U251 cells assessed as cell growth at 10^-5 M after 48 hrs by sulforhodamine B assay; details: U-251, 48 h, read-out: Activity
K562 = test: Antiproliferative activity against human K562 cells assessed as cell growth at 10^-5 M after 48 hrs by sulforhodamine B assay; details: K562, 48 h, read-out: Activity
[10] = Antiproliferative activity against human RPMI8226 cells assessed as cell growth at 10^-5 M after 48 hrs by sulforhodamine B assay; details: RPMI-8226, 48 h, read-out: Activity
[11] = Antiproliferative activity against human TK10 cells assessed as cell growth at 10^-5 M after 48 hrs by sulforhodamine B assay; details: TK-10, 48 h, read-out: Activity
HT-29 [12] = test: Antiproliferative activity against human HT-29 cells assessed as cell growth at 10^-5 M after 48 hrs by sulforhodamine B assay; details: HT-29, 48 h, read-out: Activity
[13] = Antiproliferative activity against human LOXIMVI cells assessed as cell growth at 10^-5 M after 48 hrs by sulforhodamine B assay; details: LOX IMVI, read-out: Activity
KM12 = test: Antiproliferative activity against human KM12 cells assessed as growth inhibition after 48 hrs by sulforhodamine B assay; details: KM12, 48 h
HT-29 [14] = test: Antiproliferative activity against human HT-29 cells assessed as growth inhibition after 48 hrs by sulforhodamine B assay; details: HT-29, 48 h
NCI-H322M = test: Antiproliferative activity against human NCI-H322M cells assessed as growth inhibition after 48 hrs by sulforhodamine B assay
SK-MEL-28 = test: Antiproliferative activity against human SK-MEL-28 cells assessed as cell growth at 10^-5 M after 48 hrs by sulforhodamine B assay; details: SK-MEL-28, 48 h, read-out: Activity
[15] = Antiproliferative activity against human UACC62 cells assessed as cell growth at 10^-5 M after 48 hrs by sulforhodamine B assay; details: UACC-62, 48 h, read-out: Activity

Row | SMILES | growth at 10 µM (SR) [%] | growth at 10 µM (SK-MEL-5) [%] | growth at 10 µM [1] [%] | growth at 10 µM [2] [%] | growth at 10 µM [3] [%] | growth at 10 µM (M14) [%] | growth at 10 µM [4] [%] | growth at 10 µM [5] [%] | growth at 10 µM (Malme-3M) [%] | growth at 10 µM (NCI-H522) [%] | growth at 10 µM [6] [%] | growth at 10 µM (T47D) [%] | growth at 10 µM (NCI-H460) [%] | growth at 10 µM (ACHN) [%] | growth at 10 µM [7] [%] | growth at 10 µM [8] [%] | growth at 10 µM (MCF7) [%] | growth at 10 µM [9] [%] | growth at 10 µM (EKVX) [%] | growth at 10 µM (U-251) [%] | further results
1 | CNC(=O)c1cc(Oc2ccc3nc(NC(=O)Nc4ccc(Cl)cc4)sc3c2)ccn1 | 42.7 | 73.3 | 83.5 | 83.6 | 50.6 | 63 | 50.8 | 6.54 | 17.7 | 78 | 62.5 | 44 | 64.3 | 64.9 | 66.3 | 85.4 | 69.5 | 47.3 | 53.8 | 37.3 | growth at 10 µM (K562): 65.6%; growth at 10 µM [10]: 81.7%; growth at 10 µM [11]: 62.3%; growth at 10 µM (HT-29 [12]): 68.8%; growth at 10 µM [13]: 51.6%
2 | CNC(=O)c1cc(Oc2ccc(NC(=O)Nc3ccc(Cl)c(C(F)(F)F)c3)cc2)ccn1 [SORAFENIB] | – | – | – | – | – | – | – | – | – | – | – | – | – | – | – | – | – | – | – | – | TGI (KM12): 7.94 µM; GI50 (HT-29 [14]): 2 µM; TGI (HT-29 [14]): 7.94 µM; GI50 (NCI-H322M): 2.51 µM; TGI (NCI-H322M): 10 µM
3 | CNC(=O)c1cc(Oc2ccc3nc(NC(=O)c4ccc(Cl)c(C(F)(F)F)c4)sc3c2)ccn1 | 37.6 | 70.9 | 69.9 | 64.9 | 39 | 89.9 | 47.9 | 83.7 | 57 | 57.3 | 80.4 | 64.8 | 56.4 | 60.6 | 78.3 | 67.3 | 64.1 | 61.9 | 78.8 | 59.2 | growth at 10 µM (SK-MEL-28): 83%; growth at 10 µM [15]: 81.1%; growth at 10 µM (K562): 69.9%; growth at 10 µM [10]: 64.8%; growth at 10 µM [11]: 92.8%; growth at 10 µM (HT-29 [12]): 68.1%; growth at 10 µM [13]: 71.2%
4 | CNC(=O)c1cc(Oc2ccc3nc(NC(=O)Nc4ccc(F)cc4F)sc3c2)ccn1 | 80.4 | 39 | 61.7 | 45.5 | 19.2 | 69.1 | 42.3 | 60.7 | 46.2 | 68.7 | 91.4 | 56.5 | 63 | 60.6 | 76.7 | 82.4 | 66.8 | 20.7 | 89.8 | 37 | growth at 10 µM (SK-MEL-28): 52.1%; growth at 10 µM [15]: 65.1%; growth at 10 µM (K562): 71.5%; growth at 10 µM [10]: 72.9%; growth at 10 µM [11]: 93.5%; growth at 10 µM (HT-29 [12]): 58.8%; growth at 10 µM [13]: 52.1%
5 | CNC(=O)c1cc(Oc2ccc3nc(NC(=O)Nc4ccc(C(F)(F)F)cc4)sc3c2)ccn1 | 70.6 | 56.9 | 82.2 | 58.4 | 29.1 | 35.8 | 85.5 | 67.3 | 20.8 | 42.4 | 65 | 44.8 | 33.4 | 73.4 | 63.2 | 73.3 | 42 | 7.67 | 53.5 | 22.4 | growth at 10 µM (SK-MEL-28): 68.9%; growth at 10 µM [15]: 56%; growth at 10 µM (K562): 76.3%; growth at 10 µM [10]: 70.4%; growth at 10 µM [11]: 55.3%; growth at 10 µM (HT-29 [12]): 78.4%; growth at 10 µM [13]: 48.1%
